In US20250034170A1, “SMALL MOLECULE MODULATORS OF GLUCOCEREBROSIDASE ACTIVITY AND USES THEREOF” (Vanqua Bio, Inc., priority 2021, published 2025):

Molecular target: T1, GCase (Homo sapiens, UniProt P04062)
T1 construct: endogenous in cells; host or cells: HeLa cells
T1 sequence (P04062 40-536): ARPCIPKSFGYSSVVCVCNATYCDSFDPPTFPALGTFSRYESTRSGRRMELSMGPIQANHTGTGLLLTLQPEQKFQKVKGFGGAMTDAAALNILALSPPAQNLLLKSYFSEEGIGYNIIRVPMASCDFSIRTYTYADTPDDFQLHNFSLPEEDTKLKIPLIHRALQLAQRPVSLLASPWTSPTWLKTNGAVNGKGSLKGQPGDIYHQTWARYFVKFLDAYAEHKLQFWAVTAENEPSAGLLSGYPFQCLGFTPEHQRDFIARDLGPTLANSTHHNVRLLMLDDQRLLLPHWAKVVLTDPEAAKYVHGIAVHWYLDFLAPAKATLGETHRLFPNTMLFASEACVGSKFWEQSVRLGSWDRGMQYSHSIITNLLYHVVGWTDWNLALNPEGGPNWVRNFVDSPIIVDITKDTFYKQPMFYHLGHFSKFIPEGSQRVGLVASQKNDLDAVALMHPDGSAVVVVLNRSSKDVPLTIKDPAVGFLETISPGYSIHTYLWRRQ
Experiment: activation of GCase in a live cell PFB assay in HELA cells
Assay type: cell-based
Details: EC50 given as range classes
Description: Exemplary compounds were evaluated for activation of GCase in a live cell PFB assay in HELA cells (essentially as described in Ysselstein et al., “LRRK2 kinase activity regulates lysosomal glucocerebrosidase in neurons derived from Parkinson's disease patients” Nature Communications (2019) 10:5570). […] EC50 ranges: A: <10 μM; B: >10-50 μM; C: >50-100 μM; D: >100 μM.

Structure (SMILES) | EC50 [µM]
Cc1ccc(N2CC3(CCN(c4cnc5cnn(CC(F)F)c5n4)CC3)CC2=O)c(OC(F)F)n1 [Cmpd 781] | < 10
Cc1ccc(N2CC3(CCN(c4cnc5cnn(CC(F)F)c5n4)CC3)CC2=O)c(OC(F)(F)F)n1 [Cmpd 782] | < 10
COc1nc(N2CCC3(CCN(c4cnc5cnn(CC(F)F)c5n4)CC3)C2=O)ccc1C(F)(F)F [Cmpd 783] | 50 to 100
COc1ccc(C(F)(F)F)c(N2CCC3(CCN(c4cnc5cnn(CC(F)F)c5n4)CC3)C2=O)n1 [Cmpd 784] | < 10
Cc1cnc(N2CCC3(CCN(c4cnc5cnn(CC(F)F)c5n4)CC3)C2)nc1C(F)(F)F [Cmpd 785] | > 100
Cc1nc(C(F)(F)F)cnc1N1CCC2(CCN(c3cnc4cnn(CC(F)F)c4n3)CC2)C1 [Cmpd 786] | < 10
COc1nc(C(F)(F)F)ncc1N1CCC2(CCN(c3cnc4cnn(CC(F)F)c4n3)CC2)C1 [Cmpd 787] | < 10
COc1ncc(N2CCC3(CCN(c4cnc5cnn(CC(F)F)c5n4)CC3)C2)c(C(F)(F)F)n1 [Cmpd 788] | 10 to 50
O=C1CC2(CCN(c3cnc4cnn(CC(F)F)c4n3)C2)CCN1c1ccc(C(F)(F)F)nc1 (stereo not shown) [Cmpd 789] | 10 to 50
O=C1CCC2(CCN(c3cnc4cnn(CC(F)F)c4n3)C2)CN1c1ccc(C(F)(F)F)nc1 (stereo not shown) [Cmpd 790] | < 10
O=C1CC2(CCN(c3cnc4cnn(CC(F)F)c4n3)C2)CCN1c1ccc(C(F)(F)F)cn1 (stereo not shown) [Cmpd 791] | 50 to 100
O=C1CCC2(CCN(c3cnc4cnn(CC(F)F)c4n3)C2)CN1c1ccc(C(F)(F)F)cn1 (stereo not shown) [Cmpd 792] | < 10
O=C1CC2(CCN(c3cnc4cnn(CC(F)F)c4n3)C2)CCN1c1cc(C(F)(F)F)ccn1 (stereo not shown) [Cmpd 793] | 10 to 50
O=C1CCC2(CCN(c3cnc4cnn(CC(F)F)c4n3)C2)CN1c1cc(C(F)(F)F)ccn1 (stereo not shown) [Cmpd 794] | < 10
O=C1CC2(CCN(c3cnc4cnn(CC(F)F)c4n3)C2)CCN1c1cncc(C(F)(F)F)c1 (stereo not shown) [Cmpd 795] | < 10
O=C1CCC2(CCN(c3cnc4cnn(CC(F)F)c4n3)C2)CN1c1cncc(C(F)(F)F)c1 (stereo not shown) [Cmpd 796] | < 10
O=C1N(c2ccc(C(F)(F)F)nc2)CCC12CC1CCC(C2)N1c1cnc2cnn(CC(F)F)c2n1 (stereo not shown) [Cmpd 797] | < 10
O=C1N(c2ccc(C(F)(F)F)cn2)CCC12CC1CCC(C2)N1c1cnc2cnn(CC(F)F)c2n1 (stereo not shown) [Cmpd 798] | 10 to 50
O=C1N(c2ccc(C(F)(F)F)nc2)CCC12C1CCC2CN(c2cnc3cnn(CC(F)F)c3n2)C1 (stereo not shown) [Cmpd 799] | < 10
O=C1N(c2ccc(C(F)(F)F)cn2)CCC12C1CCC2CN(c2cnc3cnn(CC(F)F)c3n2)C1 (stereo not shown) [Cmpd 800] | < 10
O=C1CC2(CN1c1ccc(C(F)(F)F)nc1)C1CC2CN(c2cnc3cnn(CC(F)F)c3n2)C1 (stereo not shown) [Cmpd 801] | 50 to 100
O=C1CC2(CN1c1ccc(C(F)(F)F)cn1)C1CC2CN(c2cnc3cnn(CC(F)F)c3n2)C1 (stereo not shown) [Cmpd 802] | 10 to 50
O=C1N(c2cnc3cnn(CC(F)F)c3n2)CCC12CC1CCC(C2)N1c1ccc(C(F)(F)F)nc1 (stereo not shown) [Cmpd 803] | < 10
O=C1CC2(CN1c1ccc(C(F)(F)F)nc1)C1CCC2CN(c2cnc3cnn(CC(F)F)c3n2)C1 (stereo not shown) [Cmpd 804] | 10 to 50
O=C1CC2(CN1c1cnc(C(F)(F)F)cn1)C1CCC2CN(c2cnc3cnn(CC(F)F)c3n2)C1 (stereo not shown) [Cmpd 805] | 10 to 50
O=C1CC2(CN1c1cncc(C(F)(F)F)n1)C1CCC2CN(c2cnc3cnn(CC(F)F)c3n2)C1 (stereo not shown) [Cmpd 806] | 10 to 50

Structure (SMILES) | EC50 [µM]
FC(F)Cn1ncc2ncc(N3CCC4(CCN(c5ccc(C(F)(F)F)nc5)CC4)CC3)nc21 [Cmpd 807] | < 10
FC(F)Cn1ncc2ncc(N3CCC4(CCN(c5cncc(C(F)(F)F)c5)CC4)CC3)nc21 [Cmpd 808] | 10 to 50
FC(F)Cn1ncc2ncc(N3CCC4(CCN(c5cccc(C(F)(F)F)n5)CC4)CC3)nc21 [Cmpd 809] | < 10
FC(F)Cn1ncc2ncc(N3CCC4(CCN(c5ccc(C(F)(F)F)cn5)CC4)CC3)nc21 [Cmpd 810] | 10 to 50
FC(F)Cn1ncc2ncc(N3CCC4(CCN(c5cc(C(F)(F)F)ccn5)CC4)CC3)nc21 [Cmpd 811] | < 10
FC(F)Cn1ncc2ncc(N3CCC4(CCN(c5ccnc(C(F)(F)F)c5)CC4)CC3)nc21 [Cmpd 812] | < 10
FC(F)Cn1ncc2ncc(N3CCC4(CCN(c5cncc(C(F)(F)F)n5)CC4)CC3)nc21 [Cmpd 813] | < 10
FC(F)Cn1ncc2ncc(N3CCC4(CCN(c5cnc(C(F)(F)F)cn5)CC4)CC3)nc21 [Cmpd 814] | < 10
CC1(C)CC2(CCN(c3cnc4cnn(CC(F)F)c4n3)CC2)C(=O)N1c1ccc(C(F)(F)F)nc1 [Cmpd 815] | 10 to 50
CC1(C)N(c2ccc(C(F)(F)F)nc2)C(=O)CC12CCN(c1cnc3cnn(CC(F)F)c3n1)CC2 [Cmpd 816] | 10 to 50
O=C1N(c2ccnc(C(F)(F)F)c2)C(=O)C2(CCN(c3cnc4cnn(CC(F)F)c4n3)CC2)N1Cc1cc(F)cc(F)c1 [Cmpd 817] | < 10
O=C1N(c2ccc(C(F)(F)F)nc2)C(=O)C2(CCN(c3cnc4cnn(CC(F)F)c4n3)CC2)N1Cc1cc(F)cc(F)c1 [Cmpd 818] | < 10
O=C1N(c2cnc(C(F)(F)F)nc2)C(=O)C2(CCN(c3cnc4cnn(CC(F)F)c4n3)CC2)N1Cc1cc(F)cc(F)c1 [Cmpd 819] | < 10
O=C1N(c2cncc(C(F)(F)F)n2)C(=O)C2(CCN(c3cnc4cnn(CC(F)F)c4n3)CC2)N1Cc1cc(F)cc(F)c1 [Cmpd 820] | < 10
O=C1N(c2cnc(C(F)(F)F)cn2)C(=O)C2(CCN(c3cnc4cnn(CC(F)F)c4n3)CC2)N1Cc1cc(F)cc(F)c1 [Cmpd 821] | < 10
CCOCCN1C(=O)N(c2cc(C(F)(F)F)ccn2)C(=O)C12CCN(c1cnc3cnn(CC(F)F)c3n1)CC2 [Cmpd 822] | > 100
FC(F)(F)c1ncc(N2CCC3(CCN(c4cncc(-c5nncs5)n4)CC3)C2)cn1 [Cmpd 823] | 10 to 50
FC(F)(F)c1cnc(N2CCC3(CCN(c4cncc(-c5nncs5)n4)CC3)C2)cn1 [Cmpd 824] | 10 to 50
FC(F)(F)c1ccc(N2CCC3(CCN(c4cncc(-c5nncs5)n4)CC3)C2)nn1 [Cmpd 825] | 10 to 50
FC(F)Cn1ncc2cnc(N3CCC4(CCN(c5ccc(C(F)(F)F)nc5)C4)CC3)nc21 [Cmpd 827] | 10 to 50
O=C1CC2(CCN(c3ncc4cnn(CC(F)F)c4n3)CC2)CN1c1ccc(C(F)(F)F)nc1 [Cmpd 828] | 10 to 50
Cc1nn(CC(F)F)c2nc(N3CCC4(CCN(c5cnc(C(F)(F)F)nc5)C4)CC3)cnc12 [Cmpd 829] | < 10
Cc1nn(CC(F)F)c2nc(N3CCC4(CCN(c5ccc(C(F)(F)F)nc5)C4)CC3)ncc12 [Cmpd 830] | < 10
Cc1nn(CC(F)F)c2nc(N3CCC4(CC3)CCN(c3ccc(C(F)(F)F)nc3)C4=O)ncc12 [Cmpd 831] | 10 to 50
Cc1nn(CC(F)F)c2nc(N3CCC4(CC3)CC(=O)N(c3ccc(C(F)(F)F)nc3)C4)ncc12 [Cmpd 832] | < 10
COc1nn(CC(F)F)c2nc(N3CCC4(CCN(c5ccc(C(F)(F)F)nc5)C4)CC3)cnc12 [Cmpd 833] | < 10

Same assay, conditions: activation of GCase, EC50 ranges

Structure (SMILES) | EC50 [µM]
COc1nc2cnn(CC(F)F)c2nc1N1CCC2(CC1)CCN(c1ccc(C(F)(F)F)nc1)C2=O [Cmpd 834] | < 10
COc1nn(CC(F)F)c2nc(N3CCC4(CC3)CCN(c3ccc(C(F)(F)F)nc3)C4=O)cnc12 [Cmpd 835] | < 10
COc1nc2cnn(CC(F)F)c2nc1N1CCC2(CC1)CC(=O)N(c1ccc(C(F)(F)F)nc1)C2 [Cmpd 836] | < 10
